Entries after “also recorded” stand apart in the source; their conditions may differ.
Tested on: inbred transgenic mice with mutant thyroid hormone receptor beta (TRβPV) and wild-type mice
Assay: Behavioral analysis of locomotor activity (light beam breaks) after methylphenidate
Assay type: in vivo, mouse
Details: methylphenidate 7.5 mg/kg or 30.0 mg/kg on day 3, activity assessed for 3 hours following injection
Method: Animals were kept on a light-dark schedule of 12 hours with lights on at 6:00 a.m. Behavioral tests were started between 4:30 p.m. and 5:30 p.m. Eleven-to sixteen-week-old mice were assessed in a 15×30 cm cage with four light beams crossing the cage on the long axis. Locomotor activity was measured by computer-automated counting of the number of times a light beam was blocked (San Diego Instruments, San Diego, Calif.). Activity was measured for 3 hours upon introduction of each animal to the chamber on day 1 to measure baseline/novel behavior levels (see FIG. 3), and the animals remained in the chambers for the length of the experiment (3 days) to permit drug response in an acclimated environment. On day 2, animals were injected with saline (i.p),and on day 3 with methylphenidate (7.5 mg/kg or 30.0 mg/kg). Food and water were provided ad libitum, and activity was assessed for 3 hours following injection. Activity scores were subjected to analysis of variance (ANOVA) analysis to compare the groups by genotype and injection status.

COC(=O)C(c1ccccc1)C1CCCCN1 (centres unmarked) [methylphenidate]
level of locomotor activity in response to methylphenidate (heterozygous and homozygous TRβ PV mutant inbred mice): decreased levels of activity; also recorded: responded to treatment; also recorded: reduced their level of activity; also recorded: level of activity in these mice was reduced
level of locomotor activity in response to methylphenidate (wild-type mice): increase in activity

Reference: US20020133837A1, “Transgenic animals at a nuclear hormone receptor locus” (priority 2001, published 2002)
